Laboratory results as given in patent publication US9326451B1, “Seed pillow for overcoming the limiting factors controlling rangeland reseeding success” (The United States of America, as represented by the …, priority 2012, dated 2016).

Experiments:
cheatgrass = test: Example 5: cheatgrass control by imazapic, pot study; assay type: in vivo, Bromus tectorum; conditions: 8 oz/acre, pre-emergent spray after planting
From the text: (§1) The following example illustrates the ability of seed pillows to protect seeds from soil-active herbicide and use of beneficial biostimulants and super-absorbent polymer. In the study, treatments included untreated seed and four seed pillow treatments, including seed incorporated into a pillow containing 1) activated carbon, 2) activated carbon plus biostimulants, 3) activated carbon plus super-absorbent polymer, and 4) activated carbon plus biostimulants and super-absorbent polymer. Pellets were extruded and cut into 3 mm thick hexagon pellets that were 13 mm in diameter, with each pillow containing eight pure live seeds.
(§2) Bluebunch wheatgrass and cheatgrass were sown in 14×14 cm pots at 500 pure live seeds m-2, and 1000 seeds m-2, respectively. After planting, half of the pots in the study were sprayed with 8 oz/acre of the pre-emergent herbicide imazapic, or left unsprayed. The study was arranged in a randomized block design with 8 replicates per treatment.

[1] = system: 'Anatone' bluebunch wheatgrass; conditions: in vivo
Procedure: (§3) Soil was obtained from a Wyoming big sagebrush (Artemisia tridentata Nutt. ssp. wyomingensis [Beetle & A. Young] S. L. Welsh)-steppe community type, located at the Northern Great Basin Experimental Range, 16-km southwest of Riley, Oreg. (43° 32′N, 118° 9′ W). Soil on the site has a silt-loam texture and is classified as a fine-loamy, mixed, frigid Aridic Haploxeroll (Soil Survey Staff 2012). Soil was excavated from a maximum depth of 25-cm, with the top 2-cm of soil and litter discarded to remove existing seeds. Excavated soil was used to fill square 14-cm wide by 14-cm deep growing pots that were placed in a grow-room at the Eastern Oregon Agriculture Research Center, located in Burns, Oreg., USA.
Species used in the study included the native bunchgrass ‘Anatone’ bluebunch wheatgrass and the non-native annual weed downy brome. Bluebunch wheatgrass was chosen because it is often a major component of native plant communities in the sage-steppe ecosystem of western North America, is commonly used in rangeland seeding efforts (see e.g., Ogle et al. 2010 Plant guide for bluebunch wheatgrass (Pseudoroegneria spicata). USDA-Natural Resources Conservation Service. Idaho and Washington Plant Materials Program. 5 p). […]

downy brome = test: Example 6: downy brome control by imazapic, grow-room pot study; assay type: in vivo
Procedure: as §3
Species used in the study included the native bunchgrass ‘Anatone’ bluebunch wheatgrass and the non-native annual weed downy brome. Bluebunch wheatgrass was chosen because it is often a major component of native plant communities in the sage-steppe ecosystem of western North America, is commonly used in rangeland seeding efforts (see e.g., Ogle et al. 2010 Plant guide for bluebunch wheatgrass (Pseudoroegneria spicata). USDA-Natural Resources Conservation Service. Idaho and Washington Plant Materials Program. 5 p). Like many grasses used for restoration, bluebunch wheatgrass is injured by imazapic applied at rates required for downy brome control (see e.g., Shinn and Thill 2004 Weed Technology 18:60-65). Germination potential of bluebunch wheatgrass and downy brome was 92% and 98%, respectively (as tested on blue blotter paper in 130-mm diameter petri dishes, with 25 seeds·dish−1 replicated four times per species).
Bluebunch wheatgrass seeds were untreated, coated with activated carbon, or incorporated into HPPs containing activated carbon. Pots with the sown seeds were sprayed with 0, 70, 105, 140, or 210 g acid equivalent (ae)·ha−1 (0, 4, 6, 8, or 12 oz·acre−1) of the pre-emergent herbicide imazapic (Panoramic 2SL, Alligare LLC, Opelika, Ala.), (3 seed treatments×5 herbicide application rates=15 experimental treatments). The study was arranged in a randomized complete block design with 8 replicates per treatment.
Each pot was seeded with 20 PLS (1000 PLS·m−2) of downy brome, and 10 PLS (500 PLS·m−2) of bluebunch wheatgrass. Two pods were added to each pot designated to receive HPPs. […] Response variables recorded at the conclusion of the study included: 1) plant density, 2) shoot height, and 3) oven dried (65° C. for 72-hrs) aboveground biomass.
Bluebunch wheatgrass and downy brome response data were analyzed separately in SAS (Version 9.3; SAS Institute, Cary, N.C.) using a two-way randomized complete block analysis of variance (ANOVA; Proc Mixed). […] Significance was determined at P<0.05.

bluebunch wheatgrass [2] = system: bluebunch wheatgrass; design: species or system Pseudoroegneria spicata; conditions: in vivo
From the text: (§4) In this study, bluebunch wheatgrass was either left untreated, coated with activated carbon, or incorporated into a seed-pillow containing activated carbon. Source of activated carbon used in the study was Nuchar® powdered activated carbon (MWV, Richmond, Va.). Seeds were coated with activated carbon according to U.S. Patent application 2010/0093535. Seed pillows were formed by mixing dough containing by weight 22% activated carbon, 18.6% diatomaceous earth, 57.9% SELVOL-205 solution with 1% solids, and 1.2% seed. Pellets were extruded and cut into 3 mm thick hexagon pellets that were 13 mm in diameter, with each pillow containing eight pure live seeds.
(§5) Bluebunch wheatgrass and cheatgrass were sown in 14×14 cm pots at 500 pure live seeds m-2, and 1000 seeds m-2, respectively. After planting, pots were sprayed with 4, 6, 8, or 12 oz/acre of the pre-emergent herbicide imazapic, or left unsprayed. The study was arranged in a randomized block design with 8 replicates per treatment.

bluebunch wheatgrass [3] = system: bluebunch wheatgrass; design: species or system Pseudoroegneria spicata; conditions: in vivo; remark: listed apart in the source
From the text: as §1, §2

[4] = system: cheatgrass (Bromus tectorum L.); test: Example 4: cheatgrass control by imazapic, pot study; assay type: in vivo
From the text: as §4, §5

[5] = averaged across the study, 47 days

SMILES: Cc1cnc(C2=NC(=O)C(C)(C(C)C)N2)c(C(=O)O)c1 (centres unmarked) [imazapic]
- control of cheatgrass growth (cheatgrass): effectively controlled
- effect on untreated bluebunch wheatgrass [1]: impaired
- control of downy brome (downy brome; all application rates (70, 105, 140, 210 g ae·ha−1)): effectively controlled
- reduction of downy brome biomass (downy brome; [5]): 140.2 fold
- reduction of downy brome density (downy brome; [5]): 6.6 fold
- reduction of downy brome height (downy brome; [5]): 8.0 fold
- bluebunch wheatgrass growth, untreated seed (FIG. 3B) (bluebunch wheatgrass [2]): growth was arrested
- effect on non-treated bluebunch wheatgrass seed (bluebunch wheatgrass [3]): effectively controlled
- control of cheatgrass growth ([4]; all application rates (4, 6, 8, 12 oz/acre)): effectively controlled
- cheatgrass growth (FIG. 3C) ([4]; imazapic at 8 oz/acre, bluebunch seed in activated carbon pillow): suppressed
- cheatgrass growth (FIG. 3B) ([4]; soil treated at 10 oz/acre): growth was arrested
